Measurements: patent publication US20250026743A1, “HETEROARYL-LINKED ANALOGS AS MGLU5 NEGATIVE ALLOSTERIC MODULATORS AND METHODS OF MAKING AND USING THE SAME” (Vanderbilt University, priority 2021, published 2025)
Where two headings read alike, the source gives them in different places.

Target: T1, hmGlu5 (Homo sapiens, UniProt P41594)
T1 construct: expressed in transfected cells; host or cells: HEK 293A
Assay: mGlu5 Ca2+ flux assay in HEK 293A cells (negative allosteric modulation of glutamate EC80 response)
Type: cell-based
Details: for remaining activity at 30 µM: HEK293-A, read-out: hmGlu5 NAM Emin (%); for IC50: HEK 293A cells, Ca2+ flux, glutamate EC80, >10,000 = decrease without plateau, read-out: hmGlu5 NAM IC50
Protocol: HEK 293A cells stably expressing either rat or human mGlu5 were plated in black-walled, clear-bottomed, poly-D-lysine coated 384-well plates in 20 μL of assay medium (DMEM containing 10% dialyzed FBS, 20 mM HEPES, 100 units/mL penicillin/streptomycin plus 250 ng/mL Fungizone, and 1 mM sodium pyruvate) at a density of 20K cells/well. The cells were grown overnight at 37° C. in the presence of 5% CO2. The next day, medium was removed and the cells incubated with 20 μL of 2.3 μM Fluo-4, AM prepared as a 2.3 mM stock in DMSO and mixed in a 1:1 ratio with 10% (w/v) pluronic acid F-127 and diluted in assay buffer (Hank's balanced salt solution, 20 mM HEPES, and 2.5 mM probenecid) for 45 minutes at 37° C. Dye was removed, 20 μL of assay buffer was added, and the plate was incubated for 5 minutes at room temperature.
Ca^2+ flux was measured using the Functional Drug Screening System (FDSS7000, Hamamatsu, Japan). After establishment of a fluorescence baseline for about 3 seconds, the compounds of the present invention were added to the cells, and the response in cells was measured. 2.3 minutes later an EC20 concentration of the mGlu5 receptor agonist glutamate was added to the cells, and the response of the cells was measured for 1.9 minutes; an EC80 concentration of agonist was added and readings taken for an additional 1.7 minutes. All test compounds were dissolved and diluted to a concentration of 10 mM in 100% DMSO. Compounds were then serially diluted 1:3 in DMSO into 10 point concentration response curves, transferred to daughter plates, and further diluted into assay buffer to a 2× stock. Calcium fluorescence measures were recorded as fold over basal fluorescence; raw data was then normalized to the maximal response to glutamate. Antagonism of the agonist response of the mGlu5 receptor in the present invention was observed as a decrease in response to nearly maximal concentrations of glutamate in the presence of compound compared to the response to glutamate in the absence of compound.
The raw data file containing all time points was used as the data source in the analysis template. This was saved by the FDSS as a tab-delimited text file. Data were normalized using a static ratio function (F/F0) for each measurement of the total 360 values per well divided by each well's initial value. Data were then reduced to peak amplitudes (Max−Initial Min) using a time range that starts approximately 3 seconds prior to the glutamate EC20/EC80 addition and continues for approximately 90-120 seconds. This is sufficient time to capture the peak amplitude of the cellular calcium response. Individual amplitudes were expressed as % EMax by multiplying each amplitude by 100 and then dividing the product by the mean of the amplitudes derived from the glutamate ECMax-treated wells. IC50 values for test compounds were generated by fitting the normalized values versus the log of the test compound concentration (in mol/L) using a 4 parameter logistic equation where none of the parameters were fixed. Each of the three values collected at each concentration of test compound were weighted evenly.
For NAMs with a CRC that plateaus above 10% Glu Max, the IC50 values are reported, the compound is designated a “partial NAM” and the % Glu Max is reported. […] Compounds without measurable activity are designated as “>30,000 nM” since the top concentration of compound tested in the assay is 30 μM. […]

T1 sequence (P41594 21-1212): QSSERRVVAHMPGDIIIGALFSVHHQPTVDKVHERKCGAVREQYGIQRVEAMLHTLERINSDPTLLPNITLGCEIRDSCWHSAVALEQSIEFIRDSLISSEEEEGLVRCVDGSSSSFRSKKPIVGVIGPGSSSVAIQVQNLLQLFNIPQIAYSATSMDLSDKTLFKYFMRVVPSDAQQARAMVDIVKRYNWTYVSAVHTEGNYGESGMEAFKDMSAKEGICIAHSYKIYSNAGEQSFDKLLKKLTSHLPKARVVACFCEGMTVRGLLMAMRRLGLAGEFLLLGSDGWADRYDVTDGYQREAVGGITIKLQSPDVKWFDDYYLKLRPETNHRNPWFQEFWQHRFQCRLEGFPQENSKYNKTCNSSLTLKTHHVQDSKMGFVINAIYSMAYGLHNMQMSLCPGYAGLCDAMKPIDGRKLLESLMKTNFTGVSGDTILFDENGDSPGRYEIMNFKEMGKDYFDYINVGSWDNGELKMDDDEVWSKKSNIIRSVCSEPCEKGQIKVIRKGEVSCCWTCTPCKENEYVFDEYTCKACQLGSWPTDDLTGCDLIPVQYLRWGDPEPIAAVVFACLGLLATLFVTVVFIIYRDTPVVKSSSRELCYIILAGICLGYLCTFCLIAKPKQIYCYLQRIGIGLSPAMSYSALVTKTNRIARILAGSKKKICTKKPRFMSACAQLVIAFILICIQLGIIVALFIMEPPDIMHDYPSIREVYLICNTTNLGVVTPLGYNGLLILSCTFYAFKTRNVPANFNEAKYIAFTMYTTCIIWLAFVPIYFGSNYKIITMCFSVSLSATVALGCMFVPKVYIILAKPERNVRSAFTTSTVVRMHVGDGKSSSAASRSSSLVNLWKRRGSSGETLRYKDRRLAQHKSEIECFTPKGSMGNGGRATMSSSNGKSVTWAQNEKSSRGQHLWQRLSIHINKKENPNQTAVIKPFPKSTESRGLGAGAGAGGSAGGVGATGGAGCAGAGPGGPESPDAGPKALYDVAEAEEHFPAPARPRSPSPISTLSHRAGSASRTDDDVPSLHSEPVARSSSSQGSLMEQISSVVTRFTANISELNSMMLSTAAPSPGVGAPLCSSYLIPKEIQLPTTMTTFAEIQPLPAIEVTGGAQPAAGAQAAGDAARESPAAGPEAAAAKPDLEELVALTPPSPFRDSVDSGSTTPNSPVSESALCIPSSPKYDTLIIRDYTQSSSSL

Row | SMILES | remaining activity at 30 µM (% Glu max at 30 μM) | IC50 | remaining activity at 30 µM
1 | Cc1nc(-c2noc(-c3ccc(F)cn3)n2)cc(-c2ccc(Cl)nc2)c1F [Compound 34, 3-(6-chloro-5′-fluoro-6′-methyl-[3,4′-bipyridin]-2′-yl)-5-(5-fluoropyridin-2-yl)-1,2,4-oxadiazole] | 8% | 577 nM | –
2 | Cc1csc(-c2noc(-c3cc(-c4cnccc4C)c(F)c(C)n3)n2)n1 [Compound 105, 5-(5′-fluoro-4,6′-dimethyl-[3,4′-bipyridin]-2′-yl)-3-(4-methylthiazol-2-yl)-1,2,4-oxadiazole] | 13% | > 10000 nM | –
3 | Cc1ccncc1-c1cc(-c2noc(C(C)c3ccccc3)n2)nc(C)c1F (stereo not shown) [Compound 95, 3-(5′-fluoro-4,6′-dimethyl-[3,4′-bipyridin]-2′-yl)-5-(1-phenylethyl)-1,2,4-oxadiazole] | 27% | > 10000 nM | –
4 | Cc1ccncc1-c1cc(-c2noc(-c3cccc(Cl)n3)n2)nc(C)c1F [Compound 21, 5-(6-chloropyridin-2-yl)-3-(5′-fluoro-4,6′-dimethyl-[3,4′-bipyridin]-2′-yl)-1,2,4-oxadiazole] | 4% | 493 nM | –
5 | Cc1nc(-c2nnc(-c3ccc(F)cc3)o2)cc(-c2cncc(F)c2)c1F [Compound 82, 2-(5,5′-difluoro-6′-methyl-[3,4′-bipyridin]-2′-yl)-5-(4-fluorophenyl)-1,3,4-oxadiazole] | – | 778 nM | 2%
6 | Cc1nc(-c2noc(-c3cscn3)n2)cc(-c2cncc(F)c2)c1F [Compound 52, 3-(5,5′-difluoro-6′-methyl-[3,4′-bipyridin]-2′-yl)-5-(thiazol-4-yl)-1,2,4-oxadiazole] | 18% | > 10000 nM | –
7 | Cc1nc(-c2nc(-c3ccc(F)cc3)no2)cc(-c2cncc(F)c2)c1F [Compound 46, 5-(5,5′-difluoro-6′-methyl-[3,4′-bipyridin]-2′-yl)-3-(4-fluorophenyl)-1,2,4-oxadiazole] | 3% | 677 nM | –
8 | COc1c(-c2cnccc2C)cc(-c2noc(-c3ccc(F)cn3)n2)nc1C [Compound 10, 5-(5-fluoropyridin-2-yl)-3-(5′-methoxy-4,6′-dimethyl-[3,4′-bipyridin]-2′-yl)-1,2,4-oxadiazole] | 2% | 641 nM | –
9 | Cc1ccc(-c2nc(-c3cc(-c4cnccc4C)c(F)c(C)n3)no2)nc1 [Compound 64, 3-(5′-fluoro-4,6′-dimethyl-[3,4′-bipyridin]-2′-yl)-5-(5-methylpyridin-2-yl)-1,2,4-oxadiazole] | 39% | > 10000 nM | –
10 | Cc1ccncc1-c1cc(-c2noc(C(F)c3ccccc3)n2)nc(C)c1F (stereo not shown) [Compound 89, 5-(fluoro(phenyl)methyl)-3-(5′-fluoro-4,6′-dimethyl-[3,4′-bipyridin]-2′-yl)-1,2,4-oxadiazole] | 3% | 3600 nM | –
11 | Cc1nc(-c2noc(-c3ccc(F)cn3)n2)cc(-c2cncc(C(F)(F)F)c2)c1F [Compound 33, 3-(5′-fluoro-6′-methyl-5-(trifluoromethyl)-[3,4′-bipyridin]-2′-yl)-5-(5-fluoropyridin-2-yl)-1,2,4-oxadiazole] | 9% | 1020 nM | –
12 | Cc1cc(CC2CCOCC2)cc(-c2noc(-c3ccc(F)cn3)n2)n1 [Compound 71, 5-(5-fluoropyridin-2-yl)-3-(6-methyl-4-((tetrahydro-2H-pyran-4-yl)methyl)pyridin-2-yl)-1,2,4-oxadiazole] | 45% | > 10000 nM | –
13 | Cc1nc(-c2noc(-c3ccc(F)cn3)n2)cc(-c2cncc(C(C)(C)O)c2)c1F [Compound 62, 2-(3′-fluoro-6′-(5-(5-fluoropyridin-2-yl)-1,2,4-oxadiazol-3-yl)-2′-methyl-[3,4′-bipyridin]-5-yl)propan-2-ol] | 5% | 1290 nM | –
14 | COc1ccnc(-c2nc(-c3cc(-c4cnccc4C)c(F)c(C)n3)no2)c1 [Compound 25, 3-(5′-fluoro-4,6′-dimethyl-[3,4′-bipyridin]-2′-yl)-5-(4-methoxypyridin-2-yl)-1,2,4-oxadiazole] | 12% | 3380 nM | –

The next compounds have a lower IC50 than those just listed; values first:

Row | remaining activity at 30 µM (% Glu max at 30 μM) | IC50 | SMILES | remaining activity at 30 µM
15 | 2% | 300 nM | COc1c(-c2cncc(F)c2)cc(-c2n[nH]c(-c3ccccc3F)n2)nc1C [Compound 100, 5-fluoro-6′-(5-(2-fluorophenyl)-1H-1,2,4-triazol-3-yl)-3′-methoxy-2′-methyl-3,4′-bipyridine] | –
16 | 1% | 82 nM | Cc1nc(-c2n[nH]c(-c3ccccc3F)n2)cc(-c2cncc(F)c2)c1F [Compound 98, 3′,5-difluoro-6′-(5-(2-fluorophenyl)-1H-1,2,4-triazol-3-yl)-2′-methyl-3,4′-bipyridine] | –
17 | 2% | 159 nM | Cc1nc(-c2noc(-c3ccc(F)cn3)n2)cc(-c2cnn(C(F)F)c2)c1F [Compound 7, 3-(4-(1-(difluoromethyl)-1H-pyrazol-4-yl)-5-fluoro-6-methylpyridin-2-yl)-5-(5-fluoropyridin-2-yl)-1,2,4-oxadiazole] | –
18 | 3% | 98 nM | Cc1ccncc1-c1cc(-c2noc(-c3ccc(F)cn3)n2)nc(C)c1F [Compound 5, 3-(5′-fluoro-4,6′-dimethyl-[3,4′-bipyridin]-2′-yl)-5-(5-fluoropyridin-2-yl)-1,2,4-oxadiazole] | –
19 | 2% | 66 nM | COc1cc(C#N)cc(-c2cc(-c3nnc(-c4ccc(F)cn4)o3)nc(C)c2F)c1 [Compound 109, 3-(3-fluoro-6-(5-(5-fluoropyridin-2-yl)-1,3,4-oxadiazol-2-yl)-2-methylpyridin-4-yl)-5-methoxybenzonitrile] | –
20 | 2% | 304 nM | Cc1nc(-c2noc(-c3ccc(F)cn3)n2)cc(-c2cncc(F)c2C)c1F [Compound 41, 3-(5,5′-difluoro-4,6′-dimethyl-[3,4′-bipyridin]-2′-yl)-5-(5-fluoropyridin-2-yl)-1,2,4-oxadiazole] | –
21 | 2% | 49 nM | Cc1ccncc1-c1cc(-c2noc(-c3cccc(F)c3)n2)nc(C)c1F [Compound 20, 3-(5′-fluoro-4,6′-dimethyl-[3,4′-bipyridin]-2′-yl)-5-(3-fluorophenyl)-1,2,4-oxadiazole] | –
22 | 2% | 155 nM | Cc1ccncc1-c1cc(-c2noc(-c3cc(Cl)ccn3)n2)nc(C)c1F [Compound 91, 5-(4-chloropyridin-2-yl)-3-(5′-fluoro-4,6′-dimethyl-[3,4′-bipyridin]-2′-yl)-1,2,4-oxadiazole] | –
23 | 3% | 81 nM | Cc1nc(-c2noc(-c3ccc(F)cc3)n2)cc(-c2cncc(F)c2)c1F [Compound 48, 3-(5,5′-difluoro-6′-methyl-[3,4′-bipyridin]-2′-yl)-5-(4-fluorophenyl)-1,2,4-oxadiazole] | –
24 | 2% | 336 nM | COc1cncc(-c2cc(-c3nnc(-c4ccc(F)cn4)o3)nc(C)c2F)c1 [Compound 107, 2-(5′-fluoro-5-methoxy-6′-methyl-[3,4′-bipyridin]-2′-yl)-5-(5-fluoropyridin-2-yl)-1,3,4-oxadiazole] | –
25 | 1% | 166 nM | Cc1ccncc1-c1cc(-c2nc(-c3ccc(F)cn3)no2)ncc1F [Compound 4, 5-(5′-fluoro-4-methyl-[3,4′-bipyridin]-2′-yl)-3-(5-fluoropyridin-2-yl)-1,2,4-oxadiazole] | –
26 | 2% | 117 nM | Cc1ccncc1-c1cc(-c2noc(-c3cccc(Cl)c3)n2)nc(C)c1F [Compound 23, 5-(3-chlorophenyl)-3-(5′-fluoro-4,6′-dimethyl-[3,4′-bipyridin]-2′-yl)-1,2,4-oxadiazole] | –
